Laboratory results reported in ChEMBL document CHEMBL2202978, “Synthesis and antiviral activity of novel HCV NS3 protease inhibitors with P4 capping groups” (Bioorg Med Chem Lett, 2012).

What was measured:
Hepatitis C virus [1] = test: Antiviral activity against HCV subtype 1b expressing NS3/4A R115K mutant protease infected in ET cells after 72 hrs; assay type: functional, organism-based, Hepacivirus hominis; settings: genotype 1b
Hepatitis C virus [2] = test: Antiviral activity against HCV subtype 1b expressing NS3/4A D168V mutant protease infected in ET cells after 72 hrs; assay type: functional, organism-based, Hepacivirus hominis; settings: genotype 1b
Hepatitis C virus [3] = test: Antiviral activity against HCV subtype 1b expressing NS3/4A D168A mutant protease infected in ET cells after 72 hrs; assay type: functional, organism-based, Hepacivirus hominis; settings: genotype 1b
Hepatitis C virus [4] = test: Antiviral activity against HCV subtype 1b expressing NS3/4A A156V mutant protease infected in ET cells after 72 hrs; assay type: functional, organism-based, Hepacivirus hominis; settings: genotype 1b
Hepatitis C virus [5] = test: Antiviral activity against HCV subtype 1b expressing NS3/4A A156T mutant protease infected in ET cells after 72 hrs; assay type: functional, organism-based, Hepacivirus hominis; settings: genotype 1b
Hepatitis C virus [6] = test: Antiviral activity against HCV subtype 1b expressing NS3/4A A156S mutant protease infected in ET cells after 72 hrs; assay type: functional, organism-based, Hepacivirus hominis; settings: genotype 1b
Hepatitis C virus [7] = test: Antiviral activity against HCV subtype 1b expressing wild type NS3/4A protease infected in ET cells after 72 hrs; assay type: functional, organism-based, Hepacivirus hominis; settings: genotype 1b
Hepatitis C virus [8] = test: Antiviral activity against HCV subtype 1b infected in human hepatoma cells; assay type: functional, organism-based, Hepacivirus hominis; settings: genotype 1b
Hepatitis C virus [9] = test: Antiviral activity against HCV subtype 1a infected in human hepatoma cells; assay type: functional, organism-based, Hepacivirus hominis
[10] = Inhibition of HCV subtype 1a NS3/4A protease (Ac-DE-Dap(QXL520)-EE-Abu-psi-[COO]-ASC(5-FAMsp)-NH2 as substrate by FRET analysis; design: species or system Hepatitis C virus subtype 1a

Compound	EC50 (Hepatitis C virus [8])	EC50 (Hepatitis C virus [9])	IC50 [10]	EC50 (Hepatitis C virus [1])	EC50 (Hepatitis C virus [2])	EC50 (Hepatitis C virus [3])	EC50 (Hepatitis C virus [4])	EC50 (Hepatitis C virus [5])	EC50 (Hepatitis C virus [6])	EC50 (Hepatitis C virus [7])
COc1ccc2c(O[C@@H]3C[C@H]4C(=O)N[C@]5(C(=O)NS(=O)(=O)C6CC6)C[C@H]5/C=C\CCCCC[C@H](N/C(=N\C#N)NC(C)(C)C)C(=O)N4C3)cc(-c3nc(C4CC4)cs3)nc2c1C	0.7 nM	2.5 nM	2.5 nM	123 nM	832 nM	331 nM	78 nM	27 nM	0.5 nM	0.3 nM
COc1ccc2c(O[C@@H]3C[C@H]4C(=O)N[C@]5(C(=O)NS(=O)(=O)C6CC6)C[C@H]5/C=C\CCCCC[C@H](NC(=O)C5(OC)CCCC5)C(=O)N4C3)cc(-c3nc(C4CC4)cs3)nc2c1C	0.3 nM	0.3 nM	4 nM	25 nM	234 nM	50 nM	49 nM	13 nM	0.09 nM	0.05 nM
COc1ccc2c(O[C@@H]3C[C@H]4C(=O)N[C@]5(C(=O)NS(=O)(=O)C6CC6)C[C@H]5/C=C\CCCCC[C@H](N5CCOC5=O)C(=O)N4C3)cc(-c3nc(C4CC4)cs3)nc2c1C	14 nM	17 nM	2.5 nM	977 nM	3020 nM	1820 nM	151 nM	107 nM	3.5 nM	27 nM
COc1ccc2c(O[C@@H]3C[C@H]4C(=O)N[C@]5(C(=O)NS(=O)(=O)C6CC6)C[C@H]5/C=C\CCCCC[C@H](N5CCCC5=O)C(=O)N4C3)cc(-c3nc(C4CC4)cs3)nc2c1C	24 nM	42 nM	20 nM	794 nM	3980 nM	1350 nM	646 nM	219 nM	6.2 nM	8.7 nM

Second part, led by results:

EC50 (Hepatitis C virus [8])	EC50 (Hepatitis C virus [9])	IC50 [10]	Compound	EC50 (Hepatitis C virus [1])	EC50 (Hepatitis C virus [2])	EC50 (Hepatitis C virus [3])	EC50 (Hepatitis C virus [4])	EC50 (Hepatitis C virus [5])	EC50 (Hepatitis C virus [6])	EC50 (Hepatitis C virus [7])
0.6 nM	0.5 nM	0.8 nM	COc1ccc2c(O[C@@H]3C[C@H]4C(=O)N[C@]5(C(=O)NS(=O)(=O)C6CC6)C[C@H]5/C=C\CCCCC[C@H](NC(=O)C(C)=O)C(=O)N4C3)cc(-c3nc(C4CC4)cs3)nc2c1C	–	–	–	–	–	–	–
1.2 nM	2.6 nM	1 nM	CCOC(=O)C(=O)N[C@H]1CCCCC/C=C\[C@@H]2C[C@@]2(C(=O)NS(=O)(=O)C2CC2)NC(=O)[C@@H]2C[C@@H](Oc3cc(-c4nc(C5CC5)cs4)nc4c(C)c(OC)ccc34)CN2C1=O	–	–	–	–	–	–	–
0.7 nM	0.6 nM	4 nM	COc1ccc2c(O[C@@H]3C[C@H]4C(=O)N[C@]5(C(=O)NS(=O)(=O)C6CC6)C[C@H]5/C=C\CCCCC[C@H](NC(=O)C(=O)NC(C)(C)C)C(=O)N4C3)cc(-c3nc(C4CC4)cs3)nc2c1C	–	–	–	–	–	–	–
0.5 nM	0.5 nM	6.3 nM	COc1ccc2c(O[C@@H]3C[C@H]4C(=O)N[C@]5(C(=O)NS(=O)(=O)C6CC6)C[C@H]5/C=C\CCCCC[C@H](NC(=O)C(=O)NC5CCCCC5)C(=O)N4C3)cc(-c3nc(C4CC4)cs3)nc2c1C	–	–	–	–	–	–	–
0.4 nM	0.4 nM	1.3 nM	COc1ccc2c(O[C@@H]3C[C@H]4C(=O)N[C@]5(C(=O)NS(=O)(=O)C6CC6)C[C@H]5/C=C\CCCCC[C@H](NC(=O)C(=O)N5CCCC5)C(=O)N4C3)cc(-c3nc(C4CC4)cs3)nc2c1C	–	–	–	–	–	–	–
